According to patent US4517003A, “N-acyl phosphoric triamide urease inhibitors and urease inhibited urea based fertilizer compositions” (Allied Corporation, priority 1983, dated 1985):
Read-outs that look alike come from different tables or passages of the source.

Assays:
[1] = target: T1, jack bean urease (Sigma, Type IX) (Canavalia ensiformis, UniProt P07374); experiment: Jack bean urease inhibition (modified Bremner procedure, homogeneous solution); assay type: biochemical; conditions: for inhibition at 0.01 µM: read-out: % Inhibition at Specific Inhibitor Concentrations 10^-8 M
T1 construct: purchased Sigma Type IX
Method: Efficacy tests were also conducted with jack bean urease. The procedure of Bremner (see L. A. Douglas and J. M. Bremner, Soil Biol. Biochem., 3, 859-62 (1970) and references therein) was modified by replacing the soil as the source of urease with commercial purified jack bean urease (Sigma, Type IX). The incubation then proceeds in homogeneous solution.
The prior art compound selected for comparative testing was N-(diaminophosphinyl)-p-chlorobenzamide, and the compounds selected for use in the composition of this invention are N-(diaminophosphinyl)-2,2,2-trichloroacetamide, N-(diaminophosphinyl)-2,2-dichloroacetamide, and N-(diaminophosphinyl)-2-chloroacetamide The test procedure employed was identical to that used in Example VII.

[2] = tested on: soil urease; experiment: Urease inhibition efficacy test in soil; assay type: biochemical; conditions: Cazenovia silt loam, pH 7.2, incubated at 25° C. for three days, triplicate
Method: Efficacy tests were conducted to evaluate the efficacy of certain representative phosphoric triamide compounds as urease inhibitors. The inhibition tests were run in a New York soil (Cazenovia silt loam, pH 7.2). […] The bottle was capped with perforated aluminum foil and incubated at 25° C. for three days prior to extraction with 100 mL of a 2M KCl solution containing 0.5 mg of phenylmercuric acetate. The extracts were then analyzed for remaining urea using an autoanalyzer. Percent inhibition was calculated as [formula] Where A is urea recovered from unincubated sample (urea added to soil and immediately extracted); B is urea recovered from inhibited sample; and C is urea recovered from the control (uninhibited sample).

[3] = tested on: soil nitrification; experiment: Nitrification inhibition efficacy test in soil; conditions: Cazenovia silt loam pH 7.3, 14 days at 25° C.; for % Inhibition at 40 ug per gram of soil, t14 (Inhibition of Soil Nitrification): diammonium phosphate applied after 14 days (t14); for % Inhibition at 40 ug per gram of soil, t0 (Inhibition of Soil Nitrification): diammonium phosphate applied simultaneously (t0)
Method: Efficacy tests were conducted to evaluate the efficacy of certain representative phosphoric triamide compounds as nitrification inhibitors. All compounds were evaluated in Cazenovia silt loam soil (pH 7.3). The evaluations consisted of applying either simultaneously (to) or after 14 days (t14) a solution of 6.00 mg (300 ug/g soil) of diammonium phosphate in 1 mL of water to triplicate 20 g samples of air dry soil contained in 250 mL square glass bottles that had been treated with a solution of either 0 or 0.800 mg (40 ug/g soil) of the test compound in 5 mL of water. Each bottle was capped with perforated aluminum foil, incubated for 14 days at 25° C. after diammonium phosphate application, and then extracted with 100 mL of 2M potassium chloride containing 0.5 mg (5 mg/L) of phenylmercuric acetate. Each extract was allowed to settle, and an aliquot was frozen and then analyzed for nitrate using an autoanalyzer. The percent inhibition obtained during the incubation was calculated by the formula: [formula] where A is the nitrate recovered from unincubated soil before diammonium phosphate addition; B is nitrate recovered from uninhibited soil; and C is nitrate recovered from inhibited soil.
The compounds selected for use in the composition of this invention are N-(diaminophosphinyl)-2,2,2-trichloroacetamide, N-(diaminophosphinyl)-2,2-dichloroacetamide, and N-(diaminophosphinyl)-2-chloroacetamide.

[4] = Solubility in ice-cold water (observation during work-up); assay type: physicochemical
Method: The titled compound was prepared in accordance with the procedure of Example I. Using 2-chloroacetamide (7.02 g, 75 mmol), phosphorus pentachloride (15.6 g, 75 mmol) and formic acid (2.9 mL, […]), were reacted to form 16.0 g of N-(dichlorophosphinyl)-2-chloroacetamide, which was reacted with anhydrous ammonia in ether to form N-(diaminophosphinyl)-2-chloroacetamide.

[5] = Table II, 10^-6 M inhibitor, jack bean urease, read-out: % Inhibition at Specific Inhibitor Concentration 10^-6 M
[6] = Table II, 10^-7 M inhibitor, jack bean urease, read-out: % Inhibition at Specific Inhibitor Concentration 10^-7 M
[7] = Table III (comparison with prior art), 10^-6 M inhibitor, jack bean urease, read-out: % Inhibition at Specific Inhibitor Concentrations 10^-6 M
[8] = Table III (comparison with prior art), 10^-7 M inhibitor, jack bean urease, read-out: % Inhibition at Specific Inhibitor Concentrations 10^-7 M

T1 sequence (P07374 whole entry, looked up): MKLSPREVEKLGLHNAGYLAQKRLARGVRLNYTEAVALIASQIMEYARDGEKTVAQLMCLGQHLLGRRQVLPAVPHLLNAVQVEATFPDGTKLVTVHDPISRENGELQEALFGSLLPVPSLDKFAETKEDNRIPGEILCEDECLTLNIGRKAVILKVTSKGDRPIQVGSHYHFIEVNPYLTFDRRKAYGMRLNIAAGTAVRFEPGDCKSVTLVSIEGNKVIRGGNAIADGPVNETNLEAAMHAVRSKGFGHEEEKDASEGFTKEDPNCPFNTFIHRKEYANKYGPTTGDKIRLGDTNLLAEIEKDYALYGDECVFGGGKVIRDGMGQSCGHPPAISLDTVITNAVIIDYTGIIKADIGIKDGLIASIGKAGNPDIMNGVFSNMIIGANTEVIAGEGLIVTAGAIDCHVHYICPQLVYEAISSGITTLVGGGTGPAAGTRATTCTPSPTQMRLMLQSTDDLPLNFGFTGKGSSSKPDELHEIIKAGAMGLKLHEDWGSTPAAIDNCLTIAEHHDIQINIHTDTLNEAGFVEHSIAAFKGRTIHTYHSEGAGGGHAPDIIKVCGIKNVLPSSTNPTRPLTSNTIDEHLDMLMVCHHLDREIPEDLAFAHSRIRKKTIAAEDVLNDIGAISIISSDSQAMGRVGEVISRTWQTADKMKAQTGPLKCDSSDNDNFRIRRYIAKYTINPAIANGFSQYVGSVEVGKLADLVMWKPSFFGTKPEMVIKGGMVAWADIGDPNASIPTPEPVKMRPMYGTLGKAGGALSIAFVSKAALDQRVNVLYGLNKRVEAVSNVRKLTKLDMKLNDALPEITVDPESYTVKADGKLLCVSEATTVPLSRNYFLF

Row | Structure (SMILES) | inhibition at 1 µM [1, 5] | % Inhibition at 40 ug per gram of soil (Inhibition of Soil Urease) [2] | inhibition at 0.1 µM [1, 6] | inhibition at 1 µM [1, 7] | inhibition at 0.1 µM [1, 8] | % Inhibition at 40 ug per gram of soil, t14 (Inhibition of Soil Nitrification) [3] | % Inhibition at 40 ug per gram of soil, t0 (Inhibition of Soil Nitrification) [3] | inhibition at 0.01 µM ([1]; Table III (comparison with prior art), 10^-8 M inhibitor, jack bean urease) | inhibition at 1 µM ([1]; read-out: % Inhibition at Specific Inhibitor Concentrations 10^-6 M) | inhibition at 0.1 µM ([1]; read-out: % Inhibition at Specific Inhibitor Concentrations 10^-7 M) | inhibition at 0.01 µM [1] | Solubility in water [4]
1 | N#CCC(=O)NP(N)(N)=O [Example V, N-(Diaminophosphinyl)-2-Cyanoacetamide] | 56% |  |  |  |  |  |  |  |  |  |  | 
2 | NP(N)(=O)NC(=O)C(Cl)Cl [Example I, N-(Diaminophosphinyl)-2,2-dichloroacetamide] | 100% | 73% | 80 to 100% | 100% | 100% | 9% | 18% |  |  |  |  | 
3 | NP(N)(=O)NC(=O)C(Cl)(Cl)Cl [Example III, N-(Diaminophosphinyl)-2,2,2-trichloroacetamide] | 93 to 100% | 64% | 70% |  | 78% | 3% | 47% | 13% |  |  |  | 
4 | NP(N)(=O)NC(=O)C(F)(F)F [IV, N-(Diaminophosphinyl)-2,2,2-trifluoroacetamide] | 100% | 52% | 22% |  |  |  |  |  |  |  |  | 
5 | COc1ccc(C(=O)NP(N)(N)=O)cc1 [N-(Diaminophosphinyl)-4-methoxybenzamide, N-(diaminophosphinyl)-4-methoxybenzamide, reference compound] |  |  |  |  |  | 13% | 4% |  |  |  |  | 
6 | NP(N)(=O)NC(=O)c1ccc(Cl)cc1 [N-(Diaminophosphinyl)-p-chlorobenzamide, N-(diaminophosphinyl)-p-chlorobenzamide, reference compound] |  |  |  |  |  |  |  |  | 83% | 20% | 14% | 
7 | NP(N)(=O)NC(=O)CCl [Example II, N-(Diaminophosphinyl)-2-chloroacetamide] | 100% | 83% | 81% | 100% | 50% | 0% | 2% |  |  |  |  | very soluble even in ice-cold water
